# Data as given in US20250032624A1, “SMALL MOLECULE DEGRADATION METHODS FOR TREATING ALS/FTD” (University of Florida Research Foundation, Incorporated, priority 2021, published 2025).
# Experiments:
# d(G4C2)8 = assay: Affinity by MST, DNA control d(G4C2)8; type: binding; conditions: d(G4C2)8, concentrations up to 20 μM
# Procedure: (§1) Affinity measurements were performed by MST using a Monolith NT.115 system (NanoTemper Technologies) with 5′-Cy5-labeled r(G4C2)8 (SEQ ID NO: 1), 5′-Cy5-labeled d(G4C2)8 (SEQ ID NO: 1), and 5′-Cy5-labeled base pair control r(G2C2)4GAAA(G2C2)4 (SEQ ID NO: 49). All oligos were deprotected according to the manufacturer's recommended protocol. Samples were prepared as previously described^30. Briefly, RNA or DNA (5 nM) was folded in 1×MST Buffer (8 mM Na2HPO4, 185 mM NaCl, 1 mM EDTA) by heating at 95° C. for 5 minutes and slowly cooling to room temperature. Tween-20 was then added to a final concentration of 0.05% (v/v). Serial dilutions of compound in 1×MST Buffer containing 5 nM folded nucleic acid were then carried out to yield the desired compound concentrations. Samples were incubated for 90 minutes at room temperature and then loaded into premium capillaries (NanoTemper Technologies). The following parameters were used on the Monolith NT.115 system: 10% LED, 20-80% MST power, Laser-On time=30 s, Laser-Off time=5 seconds. Fluorescence was detected using excitation wavelengths of 605-645 nm and emission wavelengths of 680-685 nm. The resulting data were analyzed by thermophoresis analysis and fit using the quadratic binding equation in the MST analysis software (NanoTemper Technologies). The dissociation constant was determined using Equation 1. […]
# r(GGCC)8 = assay: Affinity by MST, base-paired control r(GGCC)8; type: binding; conditions: base-paired control r(GGCC)8, concentrations up to 20 μM
# Procedure: as §1
# C9orf72 = C9orf72 transcript RT-qPCR in healthy iPSNs; type: cell-based, human
# Procedure: Differentiated motor neurons (iPSNs) were derived from the iPSCs listed in the previous section. The differentiation process was based on a previously reported method with slight modifications^33,34. Briefly, iPSCs were plated into Matrigel-coated 100 mm dishes (30-40% confluence). Neuroepithelial induction was performed by replacing the Basal medium with Stage 1 medium [47.5% IMDM (Iscove's Modified Dulbecco's Medium), 47.5% F12 medium, 1% NEAA (Non-Essential Amino Acids) (Life Technologies), 2% B27 (Invitrogen), 1% N2 (Invitrogen), 1% PSA (Penicillin-Streptomycin-Amphotericin), 0.2 μM LDN193189 (Stemgent), 10 μM SB431542 (STEMCELL Technologies) and 3 μM CHIR99021 (Sigma-Aldrich)]. The medium was changed daily for 6 days, after which cells were detached from plates using Accutase (STEMCELL Technologies). Cells were seeded into 6-well plates (1.5×10^6 cells/well) in 3 mL of Stage 2 medium [Stage 1 medium supplemented with 0.1 μM All-trans RA (Sigma-Aldrich) and 1 μM SAG (Cayman Chemicals)]. Cells were maintained in Stage 2 medium, with daily medium changes, through Day 11 of the differentiation process. On Day 12, the Stage 2 cell medium was removed and replaced with Stage 3 medium [47.5% IMDM, 47.5% F12 medium, 1% NEAA, 2% B27, 1% N2, 1% PSA, 0.1 μM Compound E (Millipore; Catalog #: 565790), 2.5 μM DAPT (Sigma-Aldrich), 0.1 μM db-cAMP (Millipore), 0.5 μM All-trans RA, 0.1 μM SAG, 20 ng/mL ascorbic acid, 10 ng/mL BDNF (STEMCELL Technologies), and 10 ng/mL GDNF (STEMCELL Technologies)]. This medium was replaced every three days until the end of the differentiation process. Typically, a minimum of 18 days is required to produce immature differentiated motor neurons; 30 days of differentiation is the standard for producing mature differentiated spinal neurons. The cells can be maintained in medium for an additional 14-28 days after reaching maturation. […]
# For iPSNs cells were differentiated, following the protocol outlined above, until Day 15. […] RNA was extracted as described above and the expression levels of C9orf72 variants was determined by RT-qPCR and normalized to GAPDH. […]
# [1] = tested on: poly(GP), poly(GA) and TDP-43 inclusions; assay: Immunohistochemistry of cortex slices of +/+PWR500 mice; type: in vivo, mouse; conditions: IHC
# Procedure: (§2) A total of 20 age- and gender-matched mice (12 +/+PWR500 [5 Male and 7 Female] and 8 WT [4 Male and 4 Female]), ranging from 18-21 weeks old were used in therapeutic efficacy studies (Table 4). Mice were treated with a single bolus injection of 33 nmol of compound 2 formulated in 1% (v/v) DMSO/99% water, administered by an intracerebroventricular injection (ICV). Three weeks post injection, mice were euthanized, and tissue was harvested for study.
# Postmortem brain tissue was harvested and sliced along the sagittal plane at the midline. The right hemisphere was stored for 48 hours in 10% neutral buffered formalin. Tissue processing, embedding and sectioning were then performed by the Scripps Florida Histology Core. Formalin-fixed tissue was processed on a Sakura Tissue-Tek VIP 5 paraffin processor. Tissue was first embedded in paraffin, sectioned at 4 μm, and then mounted on positively charged slides. Slides were stained with primary antibody (see below) using the Leica BOND-MAX platform. Slides were then subjected to the Leica Refine Detection Kit containing the secondary polymer, DAB chromagen, and the counterstain. Slides were dehydrated in graded alcohols and cleared in xylene, before being cover slipped with a permanent mounting medium (Cytoseal 60; Thermo Scientific).
# [2] = Toxicity to the mouse in the in vivo study; conditions: in vivo treatment
# Procedure: as §2
smiles,measurement,setting,value
CCOC(=O)C1=C(Nc2ccccc2)S/C(=C\c2ccc(OCCOCCOCCOCCNC(=O)CCCOc3ccc4c(c3)c3cc5c(C(=O)N[C@H](C)CN(C)C)nccc5c(C)c3n4C)c(O)c2)C1=O [ALS Compound Formula I],saturable binding,d(G4C2)8,No saturable binding
same,saturable binding,r(GGCC)8,No saturable binding
same,effect on exon 2-3 levels,C9orf72,No effect
same,effect on intron 1b levels,C9orf72,No effect
same,effect on intron 1 levels,C9orf72,No effect
same,TDP-43 inclusions,[1],significantly reduced
same,poly(GA) inclusions,[1],significantly reduced
same,poly(GP) inclusions,[1],significantly reduced
same,toxicity to the mouse,[2],without causing toxicity to the mouse
